From ChEMBL document CHEMBL1201862, “PubChem BioAssay data set” (2004)
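Test compounds were applied to cells in 96-well plates for 48 hours at 5 doses. GI50 marks 50% less growth.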 The source made the active and inactive calls. Rule as the data show it: active = GI50 up to about 1.1 µM and inactive = higher.

Tests used:
Test in all cases: inhibition of tumour cell growth, NCI panel, 48 h
SK-MEL-2 = test system: SK-MEL-2
NCI/ADR-RES = test system: NCI/ADR-RES
NCI-H522 = test system: NCI-H522
UO-31 = test system: UO-31
SNB-19 = test system: SNB-19
HCT-116 = test system: HCT-116
Hs-578T = test system: Hs-578T
UACC-257 = test system: UACC-257
UACC-62 = test system: UACC-62
SF-295 = test system: SF-295
A498 = test system: A498
CAKI-1 = test system: CAKI-1
OVCAR-8 = test system: OVCAR-8
HOP-92 = test system: HOP-92
CCRF-CEM = test system: CCRF-CEM
KM12 = test system: KM12
OVCAR-4 = test system: OVCAR-4
HCC 2998 = test system: HCC 2998
NCI-H226 = test system: NCI-H226
HOP-62 = test system: HOP-62

Measured: GI50

CC1OC(O[C@@H]2OC=C(C=O)[C@@]3(O)CC[C@H](C)[C@@H]23)C(O)C(O)C1O (stereo not given in full)
inactive: SK-MEL-2 > 100 µM | NCI/ADR-RES > 100 µM | NCI-H522 > 100 µM | UO-31 > 100 µM | SNB-19 > 100 µM | HCT-116 > 100 µM | Hs-578T > 100 µM | UACC-257 > 100 µM | UACC-62 > 100 µM | SF-295 > 100 µM | A498 > 100 µM | CAKI-1 > 100 µM | OVCAR-8 > 100 µM | HOP-92 > 100 µM | CCRF-CEM > 100 µM | KM12 > 100 µM | OVCAR-4 > 100 µM | HCC 2998 > 100 µM | NCI-H226 > 100 µM | HOP-62 > 100 µM

CCCCCC/C=C1\CCC(CN(C)C)C1=O (stereo not given)
inactive: SK-MEL-2 13 µM | NCI/ADR-RES 7.38 µM | NCI-H522 2.85 µM | UO-31 15.4 µM | SNB-19 15.4 µM | HCT-116 3.56 µM | Hs-578T 7 µM | UACC-257 7.71 µM | UACC-62 5.64 µM | SF-295 12.7 µM | A498 17 µM | CAKI-1 4.75 µM | OVCAR-8 4.44 µM | HOP-92 11.4 µM | CCRF-CEM 1.83 µM | KM12 2.48 µM | OVCAR-4 19.6 µM | HCC 2998 5.74 µM | NCI-H226 18.7 µM | HOP-62 19.6 µM

CC1(C)C/C(=N/O)c2c(nc3ccc4ccccc4c3c2-c2ccc(Cl)cc2)C1
inactive: SK-MEL-2 43.7 µM | NCI/ADR-RES 17.5 µM | NCI-H522 15.3 µM | UO-31 16.8 µM | SNB-19 35 µM | HCT-116 11 µM | Hs-578T 23.3 µM | UACC-257 25.4 µM | UACC-62 17.3 µM | SF-295 10.9 µM | A498 19.5 µM | CAKI-1 13.5 µM | OVCAR-8 12.5 µM | HOP-92 18.3 µM | CCRF-CEM 10.9 µM | KM12 42 µM | OVCAR-4 13.8 µM | HCC 2998 21.6 µM | NCI-H226 21 µM | HOP-62 23.2 µM

COc1ccc2nc3ccc(OC)cc3c([S+]([O-])Cc3ccc([N+](=O)[O-])cc3)c2c1 (stereo not given)
inactive: SK-MEL-2 17.9 µM | NCI/ADR-RES 21.2 µM | NCI-H522 1.73 µM | UO-31 6.44 µM | SNB-19 21.3 µM | HCT-116 1.69 µM | Hs-578T 8.87 µM | UACC-257 3.9 µM | UACC-62 15.2 µM | SF-295 20.6 µM | A498 17.3 µM | CAKI-1 15.3 µM | OVCAR-8 3.39 µM | HOP-92 3.13 µM | CCRF-CEM 2.11 µM | KM12 18.4 µM | OVCAR-4 9.51 µM | HCC 2998 17.5 µM | NCI-H226 22.9 µM | HOP-62 16.1 µM

Cc1ccccc1C(=O)N1CCc2c([nH]c3ccccc23)C1
inactive: SK-MEL-2 12.8 µM | NCI/ADR-RES 22.6 µM | NCI-H522 19.1 µM | UO-31 31.2 µM | SNB-19 41.7 µM | HCT-116 17.7 µM | Hs-578T 29 µM | UACC-257 23.9 µM | UACC-62 16 µM | SF-295 29.1 µM | A498 21.5 µM | CAKI-1 24.4 µM | OVCAR-8 27 µM | HOP-92 15.1 µM | CCRF-CEM 24.8 µM | KM12 25.9 µM | OVCAR-4 22.6 µM | HCC 2998 18.5 µM | NCI-H226 21.8 µM | HOP-62 33.8 µM
